For assay [1], the target named is Receptor tyrosine-protein kinase erbB-2 (Homo sapiens, UniProt P04626). Description: biochemical.
Description: Inhibition of human cloned HER2 autophosphorylation expressed in baculovirus-infected Sf9 cells by solid-phase ELISA
Another assay concerns MCF7. Description: cells. The note with it: Homo sapiens, MCF7, 48 h.
Assay [2] deals with Epidermal growth factor receptor (Homo sapiens, UniProt P00533). Description: biochemical.
Description: Inhibition of cloned EGFR autophosphorylation expressed in baculovirus-infected Sf9 cells by solid-phase ELISA

pIC50: −log10 of the molar value.

This note sets out measurements from ChEMBL document CHEMBL1157668, “Synthesis and structure-activity relationships of N-benzyl-N-(X-2-hydroxybenzyl)-N'-phenylureas and thioureas as antitumor agents” (Bioorg Med Chem, 2010).

Epidermal growth factor receptor, sequence (P00533 whole entry): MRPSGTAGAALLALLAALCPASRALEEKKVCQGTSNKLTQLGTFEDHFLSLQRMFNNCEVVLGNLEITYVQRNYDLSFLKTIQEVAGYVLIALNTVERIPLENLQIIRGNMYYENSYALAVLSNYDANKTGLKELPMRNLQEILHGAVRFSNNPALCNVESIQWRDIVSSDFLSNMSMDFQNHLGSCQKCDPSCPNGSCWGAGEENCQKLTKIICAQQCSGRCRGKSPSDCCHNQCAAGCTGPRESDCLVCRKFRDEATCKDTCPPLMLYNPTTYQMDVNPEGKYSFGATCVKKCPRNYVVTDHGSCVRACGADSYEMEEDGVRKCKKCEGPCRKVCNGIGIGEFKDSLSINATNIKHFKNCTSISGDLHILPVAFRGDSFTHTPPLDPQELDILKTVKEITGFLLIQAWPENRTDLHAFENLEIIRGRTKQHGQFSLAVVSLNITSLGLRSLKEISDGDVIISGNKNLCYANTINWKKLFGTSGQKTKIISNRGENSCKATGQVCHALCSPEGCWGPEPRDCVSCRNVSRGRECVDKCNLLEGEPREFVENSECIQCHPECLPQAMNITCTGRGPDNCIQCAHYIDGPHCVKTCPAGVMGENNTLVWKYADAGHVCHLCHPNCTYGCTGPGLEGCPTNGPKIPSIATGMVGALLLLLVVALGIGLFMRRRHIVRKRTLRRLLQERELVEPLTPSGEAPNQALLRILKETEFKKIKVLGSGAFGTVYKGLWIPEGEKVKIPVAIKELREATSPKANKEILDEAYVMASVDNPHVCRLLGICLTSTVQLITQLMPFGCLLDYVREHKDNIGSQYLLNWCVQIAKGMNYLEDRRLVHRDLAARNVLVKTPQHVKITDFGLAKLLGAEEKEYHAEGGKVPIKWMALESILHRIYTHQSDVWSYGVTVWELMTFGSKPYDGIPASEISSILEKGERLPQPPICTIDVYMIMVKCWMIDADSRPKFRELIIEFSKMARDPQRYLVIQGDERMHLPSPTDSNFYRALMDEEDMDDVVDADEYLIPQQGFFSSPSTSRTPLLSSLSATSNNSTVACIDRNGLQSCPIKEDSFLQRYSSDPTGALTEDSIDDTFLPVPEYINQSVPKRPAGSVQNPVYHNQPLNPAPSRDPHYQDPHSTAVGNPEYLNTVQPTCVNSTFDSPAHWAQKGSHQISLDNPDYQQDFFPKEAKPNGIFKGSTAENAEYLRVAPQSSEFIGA
Receptor tyrosine-protein kinase erbB-2, sequence (P04626 whole entry): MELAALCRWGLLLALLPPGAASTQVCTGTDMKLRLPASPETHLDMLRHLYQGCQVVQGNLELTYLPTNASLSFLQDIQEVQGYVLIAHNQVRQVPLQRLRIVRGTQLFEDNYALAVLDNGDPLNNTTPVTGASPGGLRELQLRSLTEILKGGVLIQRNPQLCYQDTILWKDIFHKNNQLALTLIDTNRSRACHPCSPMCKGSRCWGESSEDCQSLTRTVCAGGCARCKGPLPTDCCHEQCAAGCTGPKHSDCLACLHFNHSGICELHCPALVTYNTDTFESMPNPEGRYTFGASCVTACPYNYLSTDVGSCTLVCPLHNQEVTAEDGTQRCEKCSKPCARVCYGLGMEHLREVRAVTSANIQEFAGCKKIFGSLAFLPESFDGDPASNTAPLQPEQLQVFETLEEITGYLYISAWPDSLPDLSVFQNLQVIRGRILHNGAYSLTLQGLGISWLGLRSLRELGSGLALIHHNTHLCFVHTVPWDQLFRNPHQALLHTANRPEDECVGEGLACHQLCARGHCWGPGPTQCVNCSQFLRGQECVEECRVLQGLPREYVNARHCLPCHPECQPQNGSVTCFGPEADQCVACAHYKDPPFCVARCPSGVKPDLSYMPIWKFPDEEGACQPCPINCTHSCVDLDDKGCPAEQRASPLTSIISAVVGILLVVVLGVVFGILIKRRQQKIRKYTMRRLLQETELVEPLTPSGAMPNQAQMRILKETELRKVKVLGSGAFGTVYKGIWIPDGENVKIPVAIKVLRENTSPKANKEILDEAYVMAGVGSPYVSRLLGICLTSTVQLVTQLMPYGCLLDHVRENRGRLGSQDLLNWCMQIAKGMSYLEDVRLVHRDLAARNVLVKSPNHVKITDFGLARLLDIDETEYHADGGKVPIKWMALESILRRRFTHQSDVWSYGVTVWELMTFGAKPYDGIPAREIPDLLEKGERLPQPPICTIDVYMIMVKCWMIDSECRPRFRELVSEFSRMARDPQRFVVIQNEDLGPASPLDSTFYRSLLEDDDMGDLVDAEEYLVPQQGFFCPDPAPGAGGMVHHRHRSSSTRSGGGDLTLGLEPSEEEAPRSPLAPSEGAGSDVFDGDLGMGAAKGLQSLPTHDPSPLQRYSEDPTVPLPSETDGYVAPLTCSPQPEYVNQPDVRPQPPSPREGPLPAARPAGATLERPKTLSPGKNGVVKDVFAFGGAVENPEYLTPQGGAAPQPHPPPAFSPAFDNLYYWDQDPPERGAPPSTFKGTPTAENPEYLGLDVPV

Turning to `Cc1cc(C)c(O)c(CN(Cc2ccc(O)cc2)C(=S)Nc2ccccc2)c1`, the figures for the pIC50 (in assay [1]; in the assay on MCF7; in assay [2]) were 5.02, 5.59 and 5.23, respectively.
Turning to `Cc1cccc(CN(Cc2ccc(F)cc2)C(=S)Nc2ccccc2)c1O`, the pIC50 (as a rule, −log10 of the IC50, conventionally taken in molar units) in assay [1] was 4.81; in the assay with MCF7, 5.42; in assay [2] it was 5.07.
The corresponding values for `CCCCN(Cc1cc(Br)cc(Br)c1O)C(=O)Nc1ccccc1` are < 4.30, 4.46 and < 4.30.
Take `CCCCN(Cc1cccc(Br)c1O)C(=O)Nc1ccccc1`: the pIC50 is < 4.30 in assay [1], 5.04 in the assay with MCF7 and 4.43 in assay [2].
The corresponding values for `Cc1cccc(CN(Cc2ccc(F)cc2)C(=O)Nc2ccccc2)c1O` are 4.42, 5.26 and 4.66.
Take `O=C(Nc1ccccc1)N(Cc1ccc(O)cc1)Cc1cccc(Br)c1O`: the results for the negative logarithm of the IC50 (pIC50) (in assay [1]; in the assay on MCF7; in assay [2]) were 5.58, 6.60 and 5.97, respectively.
The corresponding values for `Oc1c(Br)cccc1CN(Cc1ccc(F)cc1)C(=S)Nc1ccccc1` are 5.73, 6.14 and 6.01.
On to `Oc1ccc(CN(Cc2cccc(Br)c2O)C(=S)Nc2ccccc2)cc1`, for which the figures for the pIC50 (in assay [1]; in the assay on MCF7; in assay [2]) were 6.18, 7.22 and 6.92, respectively.
The matching figures for `Oc1ccc(CN(Cc2cc(Br)cc(Br)c2O)C(=S)Nc2ccccc2)cc1`: 5.65, 6.44 and 6.06.
The corresponding values for `Cc1cc(C)c(O)c(CN(Cc2ccc(F)cc2)C(=O)Nc2ccccc2)c1` are < 4.30, 5.18 and 4.56.
The corresponding values for `Cc1cc(C)c(O)c(CN(Cc2ccc(O)cc2)C(=O)Nc2ccccc2)c1` are 4.79, 5.07 and 5.03.
In the case of `Oc1ccc(CN(Cc2cc(Cl)cc(Cl)c2O)C(=S)Nc2ccccc2)cc1`, the figures for the pIC50 (in assay [1]; in the assay on MCF7; in assay [2]) were 5.91, 6.66 and 6.25, respectively.
The corresponding values for `CCCCN(Cc1cccc(Br)c1O)C(=S)Nc1ccccc1` are 4.40, 4.85 and 4.66.
The corresponding values for `Oc1ccc(CN(Cc2cccc(Cl)c2O)C(=S)Nc2ccccc2)cc1` are 6.46, 7.52 and 7.10.
Turning to `CCCCN(Cc1cc(C)cc(C)c1O)C(=O)Nc1ccccc1`, the negative logarithm of the IC50 (pIC50) was < 4.30 in assay [1], 4.59 with MCF7 and < 4.30 in assay [2].
With `CCCCN(Cc1cccc(C)c1O)C(=O)Nc1ccccc1`, the pIC50 in assay [1] is < 4.30; in the assay on MCF7 it was 4.28; in assay [2] it was < 4.30.
Turning to `Cc1cc(C)c(O)c(CN(Cc2ccc(F)cc2)C(=S)Nc2ccccc2)c1`, the values for the pIC50 (in assay [1]; with MCF7; in assay [2]) were 4.42, 4.98 and 4.71, respectively.
The corresponding values for `CCCCN(Cc1cc(Br)cc(Br)c1O)C(=S)Nc1ccccc1` are < 4.30, 4.78 and 4.50.
The corresponding values for `O=C(Nc1ccccc1)N(Cc1ccc(O)cc1)Cc1cc(Cl)cc(Cl)c1O` are 5.66, 5.96 and 5.73.
Regarding `O=C(Nc1ccccc1)N(Cc1ccc(F)cc1)Cc1cc(Br)cc(Br)c1O`, the figures for the pIC50 (in assay [1]; in the assay on MCF7; in assay [2]) were 4.91, 5.44 and 5.33, respectively.
For `O=C(Nc1ccccc1)N(Cc1ccc(F)cc1)Cc1cccc(Br)c1O`, the pIC50 in assay [1] is 5.29; in the assay with MCF7, 5.85; in assay [2] it was 5.65.
The matching figures for `CCCCN(Cc1cc(Cl)cc(Cl)c1O)C(=O)Nc1ccccc1`: < 4.30, 4.52 and < 4.30.
As for `Cc1cccc(CN(Cc2ccc(O)cc2)C(=S)Nc2ccccc2)c1O`, the pIC50 in assay [1] was 5.15; in the assay on MCF7, 5.92.
Consider `O=C(Nc1ccccc1)N(Cc1ccc(F)cc1)Cc1cc(Cl)cc(Cl)c1O`, for which the pIC50 in assay [1] was 5.02; with MCF7, 5.55; in assay [2] it was 5.38.
For the compound `CCCCN(Cc1cccc(Cl)c1O)C(=O)Nc1ccccc1`, the negative logarithm of the IC50 (pIC50) was < 4.30 in assay [1], 5.03 in the assay on MCF7 and 4.49 in assay [2].
The matching figures for `Oc1c(Cl)cccc1CN(Cc1ccc(F)cc1)C(=S)Nc1ccccc1`: 5.85, 6.28 and 6.17.
The corresponding values for `Oc1c(Cl)cc(Cl)cc1CN(Cc1ccc(F)cc1)C(=S)Nc1ccccc1` are 5.19, 5.96 and 5.87.
The matching figures for `O=C(Nc1ccccc1)N(Cc1ccc(F)cc1)Cc1cccc(Cl)c1O`: 5.46, 5.96 and 5.70.
For `Oc1c(Br)cc(Br)cc1CN(Cc1ccc(F)cc1)C(=S)Nc1ccccc1`, the pIC50 in assay [1] was 5.17; with MCF7 it was 5.77; in assay [2], 5.75.
The corresponding values for `CCCCN(Cc1cccc(C)c1O)C(=S)Nc1ccccc1` are < 4.30, 4.63 and 4.36.
The corresponding values for `CCCCN(Cc1cccc(Cl)c1O)C(=S)Nc1ccccc1` are 4.49, 5.13 and 4.74.
The matching figures for `CCCCN(Cc1cc(Cl)cc(Cl)c1O)C(=S)Nc1ccccc1`: 4.40, 4.89 and 4.61.
As to `O=C(Nc1ccccc1)N(Cc1ccc(O)cc1)Cc1cc(Br)cc(Br)c1O`, the figures for the negative-log IC50 (pIC50) (in assay [1]; with MCF7; in assay [2]) were 5.34, 5.88 and 5.95, respectively.
The matching figures for `Cc1cccc(CN(Cc2ccc(O)cc2)C(=O)Nc2ccccc2)c1O`: 4.73, 5.28 and 5.12.
Turning to `O=C(Nc1ccccc1)N(Cc1ccc(O)cc1)Cc1cccc(Cl)c1O`, the values for the negative logarithm of the IC50 (pIC50) (in assay [1]; in the assay on MCF7; in assay [2]) were 5.64, 6.72 and 6.02, respectively.
For `Cc1cc(C)c(O)c(CN(Cc2ccccc2)C(=S)Nc2ccccc2)c1`, the pIC50 in assay [1] is < 4.30; in the assay with MCF7, 4.47; in assay [2] it was < 4.30.
